“And” between values parts separate entries of the source, which are not always exact repeats. Equal values may be shown once.
Assay: Repeated-treatment efficacy for removing an intravenous dose of 238Pu (excretion, tissue retention, clinical observations), female and male arms
Format: in vivo, Swiss-Webster mice
Settings: listed as 3,4,3-LI(1,2-HOPO)
Protocol: The objective of this study was to characterize the efficacy of 3,4,3-L1(1,2-HOPO) at enhancing elimination from an internal plutonium burden in female and male Swiss-Webster mice administered a soluble citrate complex of ^238Pu and treated multiple times, starting at 24 hours after the exposure. Efficacy was evaluated by comparing the tissue contents, urinary and fecal excretions of ^238Pu in treated animals versus untreated animals.
The medical countermeasure 3,4,3-L1(1,2-HOPO) was administered parenterally (ip) or orally (po) via consecutive injections or gavages (six daily or twelve twice daily) starting at 24 hours post contamination at the following four selected doses: 30 μmol/kg ip, 150 μmol/kg po, 300 μmol/kg po, and 600 μmol/kg po (equivalent to respective approximate human doses range of […], using the accepted conversion system of mouse doses into human equivalent doses—HED—based on body surface area). Oral doses also included the permeability enhancer selected during formulation development work.
• Challenge isotope: ^238Pu • Challenge dose: 25 nCi (i.e., approximately 0.8 μCi/kg) • Route of contamination: Intravenous (iv) tail-vein • Route of treatment: Intraperitoneal Injection (ip) or Oral (po) • Frequency of treatment: Multiple (once- or twice-daily for 6 days) doses, starting 24 hr postcontamination • Treatment dose calculation: Dose calculations (mg/kg or μmol/kg) for the decorporation agent were based on the individual body weight measured after contamination. • Study Duration: 11 days, in-life
c. […] Test article and control dose formulations were prepared within 1 day of dose administration, by weighing out the appropriate amount of test article, dispersing in vehicle. For ip solutions, the test article was used alone, while for oral suspensions, a mixture of test article and excipient (90:10, w:w) was used. The pH was adjusted to 7.0-7.4 for ip administration and 5.0-5.5 for oral administration with sterile NaOH. Dose formulations were prepared at room temperature and filter-sterilized. • Storage: 2-8° C.; refrigerated; protected from light. • Characterization: The concentration of each test article formulation was verified by high-performance liquid chromatography-mass spectrometry. • Test Article Handling: Test, reference, and control article formulations were handled with the use of eye protection, gloves, and a protective laboratory coat. • Correct Dose Assurance: The test article was weighed with calibrated balances. The administration of each dose formulation was properly documented, and the amount administered to each animal recorded.
e. Experimental Procedures (In-Life Evaluations and Euthanasia) • Contamination: Single administration by intravenous (iv) tail-vein injection (0.2 mL injection volume) under isoflurane anesthesia. Three standard 0.2 mL injections were performed into polyethylene bottles and pre-loaded with aliquots of concentrated nitric acid on each injection day. Six female and six male mice were culled for necropsy 1 hr post-contamination and were used as standards. A11 standards were processed and counted together with the final samples to allow verification of the contamination dose. • Dose Administration: Single administration by intraperitoneal injection (ip) or oral gavage (po) under isoflurane anesthesia. • Mortality/Morbidity: Assessed at least once daily. • Clinical Observations: Recorded once daily (4 hr post-dose on day of treatment), or more often as clinical signs warranted. […]

O=C(NCCCN(CCCCN(CCCNC(=O)c1cccc(=O)n1O)C(=O)c1cccc(=O)n1O)C(=O)c1cccc(=O)n1O)c1cccc(=O)n1O [3,4,3-L1(1,2-HOPO)]
% Recovered Dose-Female Animals-Urine per Day-Day 11 Necropsy (animal group H, day 8, female mice): 0.66% and 1.22% and 0.77% and 0.75% and 0.78% and 0.99% and 0.49% and 1.24% | % Recovered Dose-Female Animals-Urine per Day-Day 11 Necropsy (animal group H, day 9, female mice): 0.40% and 0.85% and 0.75% and 0.43% and 0.47% and 0.72% and 0.37% and 0.99% | % Recovered Dose-Female Animals-Urine per Day-Day 11 Necropsy (animal group H, day 10, female mice): 0.31% and 0.47% and 0.39% and 0.29% and 0.19% and 0.50% and 0.25% and 0.54% | % Recovered Dose-Female Animals-Urine per Day-Day 11 Necropsy (animal group H, day 11, female mice): 0.25% and 0.49% and 0.32% and 0.27% and 0.37% and 0.52% and 0.29% and 0.67% | % Recovered Dose-Female Animals-Urine per Day-Day 11 Necropsy (animal group I, day 1, female mice): 7.77% and 13.56% and 9.39% and 8.83% and 9.40% and 8.09% and 8.07% and 7.99% | % Recovered Dose-Female Animals-Urine per Day-Day 11 Necropsy (animal group I, day 3, female mice): 5.15% and 4.91% and 4.95% and 3.52% and 6.42% and 5.63% and 7.70% | % Recovered Dose-Female Animals-Urine per Day-Day 11 Necropsy (animal group I, day 4, female mice): 2.76% and 3.63% and 3.08% and 3.06% and 4.72% and 4.39% | % Recovered Dose-Female Animals-Urine per Day-Day 11 Necropsy (animal group I, day 5, female mice): 2.07% and 2.10% and 1.73% and 1.67% and 1.85% and 1.81% and 1.59% | % Recovered Dose-Female Animals-Urine per Day-Day 11 Necropsy (animal group I, day 6, female mice): 1.80% and 2.08% and 1.82% and 1.64% and 2.11% and 1.61% and 1.48% | % Recovered Dose-Female Animals-Urine per Day-Day 11 Necropsy (animal group I, day 7, female mice): 1.20% and 1.23% and 1.07% and 1.17% and 1.43% and 1.94% and 1.45% | % Recovered Dose-Female Animals-Urine per Day-Day 11 Necropsy (animal group I, day 8, female mice): 0.79% and 1.03% and 0.78% and 0.83% and 0.67% and 0.96% and 0.90% | % Recovered Dose-Female Animals-Urine per Day-Day 11 Necropsy (animal group I, day 9, female mice): 0.82% and 0.67% and 0.59% and 0.61% and 0.55% and 0.69% and 0.52% | % Recovered Dose-Female Animals-Urine per Day-Day 11 Necropsy (animal group I, day 10, female mice): 0.78% and 0.49% and 0.52% and 0.32% and 0.31% and 0.55% and 0.45% | % Recovered Dose-Female Animals-Urine per Day-Day 11 Necropsy (animal group I, day 11, female mice): 0.67% and 0.65% and 0.58% and 0.43% and 0.46% and 0.89% and 0.44% | % Recovered Dose-Female Animals-Urine per Day-Day 11 Necropsy (animal group L, day 1, female mice): 5.35% and 10.51% and 3.65% and 5.09% and 9.71% and 8.91% and 9.38% and 5.37% | % Recovered Dose-Female Animals-Urine per Day-Day 11 Necropsy (animal group L, day 2, female mice): 9.62% and 11.11% and 5.95% and 8.55% and 8.68% and 12.54% and 10.49% and 9.01% | % Recovered Dose-Female Animals-Urine per Day-Day 11 Necropsy (animal group L, day 3, female mice): 5.07% and 4.30% and 2.41% and 3.68% and 5.39% and 4.44% and 3.21% and 5.10% | % Recovered Dose-Female Animals-Urine per Day-Day 11 Necropsy (animal group L, day 4, female mice): 4.52% and 3.28% and 1.82% and 3.38% and 3.96% and 3.67% and 4.12% and 5.10% | % Recovered Dose-Female Animals-Urine per Day-Day 11 Necropsy (animal group L, day 5, female mice): 2.41% and 2.57% and 6.05% and 2.26% and 2.77% and 2.39% and 2.74% and 3.54% | % Recovered Dose-Female Animals-Urine per Day-Day 11 Necropsy (animal group L, day 6, female mice): 1.58% and 1.95% and 4.31% and 3.12% and 2.44% and 1.42% and 1.86% and 2.87% | % Recovered Dose-Female Animals-Urine per Day-Day 11 Necropsy (animal group L, day 7, female mice): 2.68% and 4.39% and 2.50% and 2.41% and 2.29% and 1.58% and 2.14% and 2.03% | % Recovered Dose-Female Animals-Urine per Day-Day 11 Necropsy (animal group L, day 8, female mice): 2.01% and 6.27% and 1.63% and 1.89% and 1.73% and 1.02% and 1.29% and 1.12% | % Recovered Dose-Female Animals-Urine per Day-Day 11 Necropsy (animal group L, day 9, female mice): 0.99% and 3.81% and 0.96% and 1.05% and 0.50% and 0.53% and 0.57% | % Recovered Dose-Female Animals-Urine per Day-Day 11 Necropsy (animal group L, day 10, female mice): 1.29% and 1.70% and 0.71% and 1.04% and 0.44% and 0.60% and 0.41% | % Recovered Dose-Female Animals-Urine per Day-Day 11 Necropsy (animal group L, day 11, female mice): 0.70% and 1.28% and 0.58% and 0.75% and 0.68% and 0.40% and 0.72% and 0.59% | % Recovered Dose-Female Animals-Urine per Day-Day 11 Necropsy (animal group M, day 1, female mice): 8.44% and 9.22% and 6.58% and 5.72% and 8.33% and 7.11% and 8.76% and 7.62% | % Recovered Dose-Female Animals-Urine per Day-Day 11 Necropsy (animal group M, day 2, female mice): 6.23% and 7.89% and 7.02% and 10.02% and 10.31% and 12.05% and 7.08% and 9.14% | % Recovered Dose-Female Animals-Urine per Day-Day 11 Necropsy (animal group M, day 3, female mice): 2.30% and 3.50% and 4.87% and 4.65% and 3.13% and 1.94% and 3.83% and 3.56% | % Recovered Dose-Female Animals-Urine per Day-Day 11 Necropsy (animal group M, day 4, female mice): 3.18% and 2.79% and 3.46% and 4.28% and 3.48% and 2.77% and 2.90% and 3.40% | % Recovered Dose-Female Animals-Urine per Day-Day 11 Necropsy (animal group M, day 5, female mice): 1.90% and 2.00% and 3.07% and 4.53% and 2.38% and 1.31% and 2.10% and 2.52% | % Recovered Dose-Female Animals-Urine per Day-Day 11 Necropsy (animal group M, day 6, female mice): 2.20% and 3.65% and 3.85% and 2.48% and 2.57% and 1.91% and 3.39% and 2.63% | % Recovered Dose-Female Animals-Urine per Day-Day 11 Necropsy (animal group M, day 7, female mice): 1.09% and 4.12% and 3.24% and 1.63% and 2.05% and 0.95% and 2.29% and 2.08% | % Recovered Dose-Female Animals-Urine per Day-Day 11 Necropsy (animal group M, day 8, female mice): 1.16% and 1.96% and 1.85% and 1.17% and 1.59% and 1.23% and 1.36% and 1.47% | % Recovered Dose-Female Animals-Urine per Day-Day 11 Necropsy (animal group M, day 9, female mice): 0.89% and 0.80% and 0.95% and 0.56% and 0.83% and 0.91% and 1.12% and 1.20% | % Recovered Dose-Female Animals-Urine per Day-Day 11 Necropsy (animal group M, day 10, female mice): 0.48% and 0.61% and 0.71% and 0.70% and 1.03% and 1.20% and 1.18%

Source: patent US11684614B2, “Formulations of hydroxypyridonate actinide/lanthanide decorporation agents” (priority 2017, dated 2023)
